According to ChEMBL document CHEMBL5104093, “A comprehensive review on β-lapachone: Mechanisms, structural modifications, and therapeutic potentials” (Eur J Med Chem, 2021):
In brackets after ≈: the same amount, converted by molar mass.

Experiments:
[1] = Cytotoxicity against monkey LLC-MK2 cells assessed as reduction in cell viability incubated for 96 hrs by trypan blue assay; type: toxicity, cell-based, Macaca mulatta; details: rhesus monkey, read-out: LC50
[2] = tested on: HL-60; assay: Cytotoxicity against human HL-60 cells assessed as reduction in cell viability incubated for 72 hrs by MTT assay; type: functional, cell-based; details: HL-60, 72 h
[3] = tested on: PC-3; assay: Cytotoxicity against human PC-3 cells assessed as reduction in cell viability incubated for 72 hrs by MTT assay; type: functional, cell-based; details: PC-3, 72 h
[4] = tested on: SF-295; assay: Cytotoxicity against human SF-295 cells assessed as reduction in cell viability incubated for 72 hrs by MTT assay; type: functional, cell-based; details: SF-295, 72 h
[5] = tested on: MDA-MB-435; assay: Cytotoxicity against human MDA-MB-435 cells assessed as reduction in cell viability incubated for 72 hrs by MTT assay; type: functional, cell-based; details: MDA-MB-435, 72 h
[6] = tested on: HCT-8; assay: Cytotoxicity against human HCT-8 cells assessed as reduction in cell viability incubated for 72 hrs by MTT assay; type: functional, cell-based; details: HCT-8, 72 h
[7] = tested on: B16; assay: Cytotoxicity against mouse B16 cells assessed as reduction in cell viability incubated for 72 hrs by MTT assay; type: functional, cell-based; details: B16, 72 h
[8] = tested on: NCI-H292; assay: Cytotoxicity against human NCI-H292 cells assessed as reduction in cell viability incubated for 72 hrs by MTT assay; type: functional, cell-based; details: NCI-H292, 72 h
[9] = tested on: HEp-2; assay: Cytotoxicity against human HEp-2 cells assessed as reduction in cell viability incubated for 72 hrs by MTT assay; type: functional, cell-based; details: HEp-2, 72 h
[10] = tested on: Trypanosoma cruzi; assay: Antitrypanosomal activity against bloodstream form of Trypanosoma cruzi Y trypomastigotes infected in albino mouse assessed as reduction in viable parasite in blood by Neubauer counting chamber method; type: functional, organism-based
[11] = tested on: OVCAR-8; assay: Cytotoxicity against human OVCAR-8 cells assessed as reduction in cell viability by MTT assay; type: functional, cell-based
[12] = tested on: SF-295; assay: Cytotoxicity against human SF-295 cells assessed as reduction in cell viability by MTT assay; type: functional, cell-based
[13] = tested on: HCT-116; assay: Cytotoxicity against human HCT-116 cells assessed as reduction in cell viability by MTT assay; type: functional, cell-based
[14] = tested on: Trypanosoma cruzi; assay: Antitrypanosomal activity against bloodstream form of Trypanosoma cruzi trypomastigotes infected in Swiss mouse assessed as reduction in viable parasite in blood incubated for 24 hrs by Neubauer counting chamber method; type: functional, organism-based
[15] = tested on: Staphylococcus aureus; assay: Antibacterial activity against Staphylococcus aureus 2065 MA assessed as diameter of bacterial growth inhibition by Mueller-Hinton broth based assay; type: functional
[16] = tested on: HL-60; assay: Cytotoxicity against human HL-60 cells assessed as reduction in cell viability by MTT assay; type: functional, cell-based
[17] = tested on: MCF7; assay: Cytotoxicity against human MCF7 cells assessed as reduction in cell viability incubated for 72 hrs by MTT assay; type: functional, cell-based; details: MCF7, 72 h
[18] = tested on: Trypanosoma cruzi; assay: Antitrypanosomal activity against bloodstream form of Trypanosoma cruzi Y trypomastigotes infected in albino mouse assessed as reduction in viable parasite in blood incubated for 24 hrs by Neubauer counting chamber method; type: functional, organism-based
[19] = tested on: Mycobacterium tuberculosis; assay: Antimycobacterial activity against Mycobacterium tuberculosis H37Rv ATCC 27294 assessed as bacterial growth inhibition incubated for 7 days by resazurin dye based microtiter assay; type: functional; details: ATCC 27294, 168 h, time 7 day
[20] = tested on: Jurkat; assay: Cytotoxicity against human Jurkat cells assessed as reduction in cell viability incubated for 72 hrs by MTT assay; type: functional, cell-based
[21] = tested on: MOLT-4; assay: Cytotoxicity against human MOLT-4 cells assessed as reduction in cell viability incubated for 72 hrs by MTT assay; type: functional, cell-based; details: MOLT-4, 72 h
[22] = tested on: K562; assay: Cytotoxicity against human K562 cells assessed as reduction in cell viability incubated for 72 hrs by MTT assay; type: functional, cell-based; details: K562, 72 h
[23] = tested on: HeLa; assay: Cytotoxicity against human HeLa cells assessed as reduction in cell viability incubated for 48 hrs by MTT assay; type: functional, cell-based
[24] = tested on: HepG2; assay: Cytotoxicity against human HepG2 cells assessed as reduction in cell viability incubated for 48 hrs by MTT assay; type: functional, cell-based; details: HepG2, 48 h
[25] = tested on: KB; assay: Cytotoxicity against human KB cells assessed as reduction in cell viability incubated for 48 hrs by MTT assay; type: functional, cell-based
[26] = tested on: Trypanosoma cruzi; assay: Antitrypanosomal activity against bloodstream form of Trypanosoma cruzi Y trypomastigotes infected in Swiss Webster mouse assessed as reduction in viable parasite in blood incubated for 24 hrs by Neubauer counting chamber based light microscopic analysis; type: functional, organism-based

CCCCCCCCCCC1CC2=C(O1)c1ccccc1C(=O)C2=O (stereo unspecified)
CC50 at 96 h [1]: 1700 µM

CC(C)(O)c1cn(C2C3=C(OC2(C)C)c2ccccc2C(=O)C3=O)nn1 (stereo unspecified)
IC50 [2]: 2.8 µM | IC50 [3]: 2.8 µM | IC50 [4]: 2.8 µM | IC50 [5]: 2.8 µM | IC50 [6]: 2.8 µM | IC50 [7]: 2.8 µM

CC1(C)OC2=C(C(=O)C(=O)c3ccccc32)C1CO (stereo unspecified)
IC50 [8]: 0.46 µM | IC50 [9]: 0.46 µM

O=C1C(=O)c2c(O)cccc2C2=C1CCC(c1ccccc1)O2 (stereo unspecified)
IC50 [2]: 0.11 µM | IC50 [4]: 0.11 µM | IC50 [5]: 0.11 µM | IC50 [6]: 0.11 µM

CCCCCCCCC1CC2=C(O1)c1ccccc1C(=O)C2=O (stereo unspecified)
CC50 at 96 h [1]: 2200 µM | IC50 [10]: 86.7 µM

CC1(C)O[C@H]2O[C@H](COC3C4=C(OC3(C)C)c3ccccc3C(=O)C4=O)[C@@H](OCc3ccccc3)[C@H]2O1 (stereo partly specified)
IC50 [11]: 0.16 µM | IC50 [12]: 0.16 µM | IC50 [13]: 0.16 µM

CC1(C)OC2=C(C(=O)C(=O)c3ccccc32)C1N=[N+]=[N-] (stereo unspecified)
IC50 [2]: 1.19 µM | IC50 [3]: 1.19 µM | IC50 [4]: 1.19 µM | IC50 [5]: 1.19 µM | IC50 [6]: 1.19 µM | IC50 [7]: 1.19 µM

CC1(C)OC2=C(C(=O)C(=O)c3ccccc32)C1n1cc(CO)nn1 (stereo unspecified)
IC50 [2]: 3.38 µM | IC50 [3]: 3.38 µM | IC50 [4]: 3.38 µM | IC50 [5]: 3.38 µM | IC50 [6]: 3.38 µM | IC50 [7]: 3.38 µM

CC1(C)CCc2c(c3ccccc3c3nc(-c4ccccc4Cl)[nH]c23)O1
IC50 [14]: 37.5 µM

CC1(C)OC2=C(C(=O)C(=O)c3ccccc32)C1S(=O)(=O)C1CCCCC1 (stereo unspecified)
zone diameter [15]: 8 mm

CO[C@@H]1O[C@H](COC2C3=C(OC2(C)C)c2ccccc2C(=O)C3=O)[C@H]2OC(C)(C)O[C@@H]12 (stereo partly specified)
IC50 [11]: 0.16 µM | IC50 [12]: 0.16 µM | IC50 [13]: 0.16 µM | IC50 [16]: 0.16 µM

O=C1C(=O)c2c(O)cccc2C2=C1CCC(c1ccc(Cl)cc1)O2 (stereo unspecified)
IC50 [2]: 0.17 µM | IC50 [4]: 0.17 µM | IC50 [5]: 0.15 µM | IC50 [6]: 0.17 µM

Cc1ccc(-c2cc(NC3C4=C(OC3(C)C)c3ccccc3C(=O)C4=O)n(-c3ccccc3)n2)cc1 (stereo unspecified)
IC50 [11]: 0.99 µM | IC50 [12]: 1.05 µM | IC50 [13]: 0.72 µM | IC50 [16]: 0.34 µM

O=C1C(=O)c2c(O)cccc2C2=C1CCC(c1ccc(F)cc1)O2 (stereo unspecified)
IC50 [2]: 0.21 µM | IC50 [4]: 0.21 µM | IC50 [5]: 0.15 µM | IC50 [6]: 0.21 µM

CC(=O)OCC1CC2=C(OC1(C)C)c1ccccc1C(=O)C2=O (stereo unspecified)
IC50 [17]: 2.73 µM | IC50 [8]: 2.26 µM | IC50 [9]: 2.26 µM

O=C1C(=O)c2c(O)cccc2C2=C1CCC(c1ccc(Br)cc1)O2 (stereo unspecified)
IC50 [2]: 0.15 µM | IC50 [4]: 0.15 µM | IC50 [5]: 0.15 µM | IC50 [6]: 0.15 µM

COc1ccc(-c2nc3c(o2)c2c(c4ccccc43)OC(C)(C)CC2)cc1
IC50 [18]: 3500 µM

O=C1C(=O)c2ccccc2C2=C1CC(Cn1cc(COC3CCCCO3)nn1)O2 (stereo unspecified)
IC50 [10]: 52.9 µM

CC1(C)OC2=C(CC1CO)C(=O)C(=O)c1ccccc12 (stereo unspecified)
IC50 [17]: 5.51 µM | IC50 [8]: 5.51 µM | IC50 [9]: 5.51 µM

CC1(C)Oc2c(c3nc4ccccc4nc3c3ccccc23)C1N=[N+]=[N-] (stereo unspecified)
MIC [19]: 25 µg/mL (≈ 73.2 µM)

CC1CCC2C(C1)c1c(c3ccccc3c3nc4ccccc4nc13)OC2(C)C (stereo unspecified)
MIC [19]: < 6.25 µg/mL

O=C1C(=O)c2ccccc2C2=C1CC(CI)O2 (stereo unspecified)
IC50 [20]: 1.38 µM | IC50 [21]: 1.38 µM | IC50 [22]: 1.38 µM

CCOC(=O)C1=C2C3=C(OC(C)(C)CC3)c3ccccc3C2(O)CC1=O (stereo unspecified)
IC50 [18]: 56.1 µM

CC1COC2=C(C1)C(=O)C(=O)c1ccccc12 (stereo unspecified)
IC50 [23]: 0.92 µM | IC50 [24]: 0.92 µM | IC50 [25]: 0.92 µM

Cc1cccc(S(=O)(=O)C2C3=C(OC2(C)C)c2ccccc2C(=O)C3=O)c1 (stereo unspecified)
zone diameter [15]: 7 mm

CC(=O)OC[C@H]1O[C@@H](OCc2cn(C3C4=C(OC3(C)C)c3ccccc3C(=O)C4=O)nn2)[C@H](OC(C)=O)[C@@H](OC(C)=O)[C@H]1OC(C)=O (stereo partly specified)
IC50 [10]: 209 µM

O=C1C(=O)c2ccccc2C2=C1CC(O)CO2 (stereo unspecified)
IC50 [23]: 7.61 µM | IC50 [24]: 7.61 µM | IC50 [25]: 7.61 µM

CC1(C)Oc2c(c3nc4ccccc4nc3c3ccccc23)C=C1Br
MIC [19]: < 6.25 µg/mL

O=C(Cn1ccnc1[N+](=O)[O-])NCc1ccccc1 [BENZNIDAZOLE]
IC50 [26]: 104 µM | CC50 at 96 h [1]: 324 µM

CC1(C)CC2=C(O1)c1ccccc1C(=O)C2=O [NOR-BETA-LAPACHONE]
IC50 [20]: 1.34 µM

CC1(C)COC2=C(C1)C(=O)C(=O)c1ccccc12 [RHINACANTHONE]
IC50 [23]: 6.9 µM | IC50 [24]: 6.9 µM | IC50 [25]: 6.9 µM
